Test results from patent publication US20250072441A1, “METHOD FOR PREPARING A COMESTIBLE NUTRIENT COMPOSITION AND USE THEREOF” (The Cultivated B. GmbH, priority 2022, published 2025).
Read-outs that look alike come from different tables or passages of the source.

Key:
[1] = test system: HepG2 cells; test: Neutral Red Assay, cell viability/cytotoxicity; assay type: cell-based; conditions: Homo sapiens, 48 h, 2 days after compound addition, n=3
Procedure: It is a cellular assay that is based on a eurhodin dye that stains the lysosomes of viable cells. HepG2 cells were supplied by ATCC (HB-8065), cultured in DMEM supplemented with 10% FBS and grown in a incubator set to 37° C. and 5% CO2. For both assays, cells were seeded at 5.000 cells/well in a 96-well plate using only the 32 central wells. Due to inherent clumping of HepG2 cells, amount of cells could not be properly measured and varied between assays. […] Cells were processed after 2 days of compound addition. The Neutral Red Assay Kit—Cell Viability/Cytotoxicity (ab234039, Abcam) was used. All solutions of the kit were aliquoted and stored at −20° C. as recommended. […] Cell medium was removed and cells washed with 200 μL of 1× washing solution. After addition of 150 μL of 1× Neutral Red Staining Solution, cells were stained for 2 hours in the incubator. Cells were washed with 250 μL of 1× washing solution, and then air dried for approx. 10 min until no liquid was visible on the plate. Addition of 150 μL 1× solubilization solution was followed by shaking the plate for 20 min at 500 rpm and RT. The 96-well plate was then read at a microplate reader at an OD of 540 nm.

[2] = test system: HepG2 cells; conditions: read-out: IC50, expected literature value reported in the manual for the Neutral Red Assay; cited from earlier work
[3] = test system: HepG2 cells; test: cells; conditions: Homo sapiens, HepG2, 48 h
Procedure: This cellular assay quantitates the amount of ATP that can be correlated to cell viability. HepG2 cells were supplied by ATCC (HB-8065), cultured in DMEM supplemented with 10% FBS and grown in a incubator set to 37° C. and 5% CO2. For both assays, cells were seeded at 5.000 cells/well in a 96-well plate using only the 32 central wells. Due to inherent clumping of HepG2 cells, amount of cells could not be properly measured and varied between assays. Various concentrations of Doxorubicin were added 18 hours after seeding to the cells at a volume of 0.2 μL of cells using IDOT. Cells were processed after 2 days of compound addition. The CellTiter-Glo 2.0 Cell Viability Assay (G9242, Promega) was used. The solution was thawed and stored at 4° C. as recommended. Cell medium was removed, then cells were washed 2× in 100 μL PBS. After the last wash, 50 μL of PBS followed by 50 μL of CellTiter-Glo 2.0 reagent were added. The 96-well plate was mixed for 2 min on an orbital shaker and incubated at 10 min at RT. Luminescence was recorded at a microplate reader, using a integration time of 1.000 ms. For both assays, data for dose-response experiments was fitted with the equation “Log(agonist) vs response−Variable slope (four parameters)” using Prism.

Question: Which IC50 [1] does the source give for `COc1cccc2c1C(=O)c1c(O)c3c(c(O)c1C2=O)C[C@@](O)(C(=O)CO)C[C@@H]3O[C@H]1C[C@H](N)[C@H](O)[C@H](C)O1` [Doxorubicin] here?
Answer: Its IC50 is 79 nM.

Question: And the IC50 [2]?
Answer: The IC50 was 690 nM.

Question: What about the IC50 [3] of the same molecule?
Answer: Its IC50 is 116 nM.
